Structures are written as SMILES. Several values for one entry are separate records, joined by “and”; a condition that tells them apart may be missing. Equal entries are not always repeated.

One experiment is filed under the species Gallus gallus. As to the kind of experiment: The compound was evaluated for neurite outgrowth from chick dorsal root ganglia. It counts as functional.
For experiment [1], the target named is Peptidyl-prolyl cis-trans isomerase FKBP1A (Homo sapiens, UniProt P62942). The experiment can be described thus: The compound was tested for binding affinity against rotamase.
Chain of Peptidyl-prolyl cis-trans isomerase FKBP1A (P62942 whole entry): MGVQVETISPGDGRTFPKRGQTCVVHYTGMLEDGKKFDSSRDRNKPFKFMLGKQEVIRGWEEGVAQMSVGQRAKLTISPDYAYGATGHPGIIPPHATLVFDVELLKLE

As to `CCC(C)(C)C(=O)C(=O)N1CCCC[C@H]1C(=O)O[C@H](CCc1ccccc1)c1ccccc1`, the ED50 in the experiment filed under Gallus gallus worked out at 0.3 nM.

In general, Ki refers to the equilibrium dissociation constant of an inhibitor or competing ligand from its target. A lower Ki goes with a stronger hold on the target. On to `CCC(C)(C)C(=O)C(=O)N1CCCC[C@H]1C(=O)OCCCc1cccnc1`, for which, in experiment [1], affinity was put at a Ki of 165 nM. In the experiment listed under Gallus gallus, this compound came in with an ED50 of 8.5 nM. Consider `CCC(C)(C)C(=O)C(=O)N1CCCC[C@H]1C(=O)OCCCc1ccccc1`, for which the Ki in experiment [1] was 250 nM and 110 nM. This compound also yielded an ED50 in the experiment listed under Gallus gallus of 300 nM. Turning to `CCC(C)(C)C(=O)C(=O)N1CCC[C@H]1C(=O)OCCCc1ccccc1`, the ED50 in the experiment filed under Gallus gallus was determined as 53 nM.

In the experiment listed under Gallus gallus, `CCC(C)(C)C(=O)C(=O)N1CCC[C@H]1C(=O)OCCCc1cccnc1` [GPI-1046] returned an ED50 of 0.05 nM.
